Measurements from US20100227853A1, “INHIBITORS OF CYCLIC AMP PHOSPHODIESTERASES” (Trustees of Boston College, priority 2008, published 2010).
pEC50, pIC50, pKi: −log10 of the molar value.

What was measured:
PDE4A1 = target: T1, PDE4A1 (Mus musculus, UniProt O89084); experiment: cAMP response in yeast strain expressing PDE4A1; assay type: cell-based, Murine
T1 construct: targets used in the assays are full-length proteins (as opposed to simply the catalytic domain); expressed in transfected cells; host or cells: Schizosaccharomyces pombe, PDE gene integrated in place of cgs2
T1 sequence (O89084 1-610 isoform O89084-2): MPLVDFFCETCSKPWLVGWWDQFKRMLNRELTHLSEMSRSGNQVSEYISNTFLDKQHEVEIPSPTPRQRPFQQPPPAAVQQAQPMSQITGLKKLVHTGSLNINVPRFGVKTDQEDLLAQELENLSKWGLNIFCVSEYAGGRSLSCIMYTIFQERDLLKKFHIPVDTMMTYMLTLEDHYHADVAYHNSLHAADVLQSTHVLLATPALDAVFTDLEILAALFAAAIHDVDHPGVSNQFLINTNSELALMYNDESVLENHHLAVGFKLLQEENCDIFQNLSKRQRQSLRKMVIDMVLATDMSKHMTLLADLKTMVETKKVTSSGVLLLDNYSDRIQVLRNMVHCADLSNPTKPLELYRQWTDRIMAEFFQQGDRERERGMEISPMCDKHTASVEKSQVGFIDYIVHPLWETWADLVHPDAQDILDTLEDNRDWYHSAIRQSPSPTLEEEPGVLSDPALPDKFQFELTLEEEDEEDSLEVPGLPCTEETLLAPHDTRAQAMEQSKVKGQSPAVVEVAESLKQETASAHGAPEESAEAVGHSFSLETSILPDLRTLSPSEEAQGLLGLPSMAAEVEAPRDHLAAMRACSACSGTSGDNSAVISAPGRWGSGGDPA
From the text: Values represent the average and SD of two or three independent experiments. […] The strains used are as in FIG. 5A, together with strain CHP1141 (PDE8A). Values represent the average and SD of two or three independent experiments.
Thus, PDE inhibition can be indirectly quantitated by measuring the effect of a compound on cAMP levels in target yeast strains.

PDE8A = target: T2, PDE8A (Mus musculus, UniProt O88502); experiment: fbp1-lacZ β-galactosidase reporter assay, PDE8A strain; assay type: cell-based, murine
T2 construct: targets used in the assays are full-length proteins (as opposed to simply the catalytic domain); expressed in transfected cells; host or cells: Schizosaccharomyces pombe, PDE gene integrated in place of cgs2 (strains CHP1141, DDP13)
T2 sequence (O88502 1-823): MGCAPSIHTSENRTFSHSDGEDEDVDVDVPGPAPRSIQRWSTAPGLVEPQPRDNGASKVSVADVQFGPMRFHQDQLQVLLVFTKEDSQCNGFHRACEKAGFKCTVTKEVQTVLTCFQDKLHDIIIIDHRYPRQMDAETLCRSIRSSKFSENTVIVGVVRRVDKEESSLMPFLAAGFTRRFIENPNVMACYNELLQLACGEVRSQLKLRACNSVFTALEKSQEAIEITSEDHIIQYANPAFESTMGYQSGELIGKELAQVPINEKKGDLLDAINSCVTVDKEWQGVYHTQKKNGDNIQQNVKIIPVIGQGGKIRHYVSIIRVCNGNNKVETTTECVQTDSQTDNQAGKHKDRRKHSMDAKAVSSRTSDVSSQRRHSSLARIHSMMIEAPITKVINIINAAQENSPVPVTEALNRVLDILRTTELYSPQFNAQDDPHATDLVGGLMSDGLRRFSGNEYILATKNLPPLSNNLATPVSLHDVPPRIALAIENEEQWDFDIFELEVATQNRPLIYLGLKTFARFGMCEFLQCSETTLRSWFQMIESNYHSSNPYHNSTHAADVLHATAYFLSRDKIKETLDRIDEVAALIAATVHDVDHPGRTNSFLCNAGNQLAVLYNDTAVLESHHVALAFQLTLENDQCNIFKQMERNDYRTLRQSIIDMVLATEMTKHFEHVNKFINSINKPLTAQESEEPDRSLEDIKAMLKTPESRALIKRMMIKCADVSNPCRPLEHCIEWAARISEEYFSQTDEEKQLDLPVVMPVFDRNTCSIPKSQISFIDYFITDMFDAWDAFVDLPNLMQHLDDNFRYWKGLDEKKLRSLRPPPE
Method: β-galactosidase assays and characterization of 5FOA-sensitivity were carried out as previously described^10. cAMP assays were performed on exponential phase cells grown in EMM complete medium (3% glucose), using the Assay Designs cAMP EIA kit, according to manufacturer's instructions (Assay Designs, Ann arbor, Mich.).
The effect of known PDE inhibitors on the expression of the fbp1-lacZ fusion in murine PDE-expressing strains was tested. […] For Table 4 β-galactosidase activity was determined from 3 to 4 independent exponential phase cultures. The average±SD represents specific activity per milligram of soluble protein.

PDE7A [1] = target: T3, PDE7A (Homo sapiens, UniProt Q13946); experiment: in vitro enzyme assay PDE7A; assay type: biochemical; parameters: made in house; host or cells: E. coli; conditions: E. coli expressed and purified enzyme; read-out: IC50 (or AC200), PDE7A
T3 sequence (Q13946 whole entry, the tested form may be a part): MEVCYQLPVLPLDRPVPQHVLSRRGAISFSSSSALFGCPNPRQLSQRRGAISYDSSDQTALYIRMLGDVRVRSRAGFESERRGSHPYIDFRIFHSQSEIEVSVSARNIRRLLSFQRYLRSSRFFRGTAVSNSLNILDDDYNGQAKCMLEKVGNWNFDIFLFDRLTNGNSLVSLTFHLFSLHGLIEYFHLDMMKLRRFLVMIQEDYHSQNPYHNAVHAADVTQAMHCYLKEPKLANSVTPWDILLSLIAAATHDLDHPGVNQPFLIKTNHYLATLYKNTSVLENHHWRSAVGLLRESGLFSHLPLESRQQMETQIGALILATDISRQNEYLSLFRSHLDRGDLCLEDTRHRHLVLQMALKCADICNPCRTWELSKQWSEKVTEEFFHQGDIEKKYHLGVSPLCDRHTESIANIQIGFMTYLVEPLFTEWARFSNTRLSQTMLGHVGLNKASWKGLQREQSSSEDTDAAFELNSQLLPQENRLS

PDE7B [2] = target: T4, PDE7B (Homo sapiens, UniProt Q9NP56); experiment: in vitro enzyme assay, PDE7B catalytic domain from E. coli, hydrolysis of cAMP to AMP; assay type: biochemical; parameters: The PDE7B catalytic domain was expressed in and purified from E. coli; made in house; host or cells: E. coli
Method: The PDE7B catalytic domain was expressed in and purified from E. coli and tested for activity in an in vitro enzyme assay, measuring the hydrolysis of cAMP to AMP. Four dilutions of the enzyme preparation were tested at various compound concentrations (X axis). The percent of cAMP hydrolyzed is plotted on the Y axis.
Target sequence in this assay (Q9NP56 97-420 limits assumed, species assumed): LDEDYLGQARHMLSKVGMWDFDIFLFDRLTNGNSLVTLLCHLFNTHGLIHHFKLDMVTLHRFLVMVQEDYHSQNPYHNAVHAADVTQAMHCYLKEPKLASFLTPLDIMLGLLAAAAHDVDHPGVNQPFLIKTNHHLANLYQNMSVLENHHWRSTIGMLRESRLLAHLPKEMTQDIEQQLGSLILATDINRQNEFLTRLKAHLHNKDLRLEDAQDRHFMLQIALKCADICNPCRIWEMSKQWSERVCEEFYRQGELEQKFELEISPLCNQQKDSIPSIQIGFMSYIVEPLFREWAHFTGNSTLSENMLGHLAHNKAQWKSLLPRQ

PDE4D2-FL = target: T5, PDE4D2-FL (Homo sapiens, UniProt Q08499); experiment: in vitro enzyme assay, full-length PDE4D2 (residues 1-507); assay type: biochemical; conditions: read-out: IC50 (or AC200), PDE4D2-FL
T5 construct: 1-507; made in house; host or cells: E. coli
T5 sequence (Q08499 303-809): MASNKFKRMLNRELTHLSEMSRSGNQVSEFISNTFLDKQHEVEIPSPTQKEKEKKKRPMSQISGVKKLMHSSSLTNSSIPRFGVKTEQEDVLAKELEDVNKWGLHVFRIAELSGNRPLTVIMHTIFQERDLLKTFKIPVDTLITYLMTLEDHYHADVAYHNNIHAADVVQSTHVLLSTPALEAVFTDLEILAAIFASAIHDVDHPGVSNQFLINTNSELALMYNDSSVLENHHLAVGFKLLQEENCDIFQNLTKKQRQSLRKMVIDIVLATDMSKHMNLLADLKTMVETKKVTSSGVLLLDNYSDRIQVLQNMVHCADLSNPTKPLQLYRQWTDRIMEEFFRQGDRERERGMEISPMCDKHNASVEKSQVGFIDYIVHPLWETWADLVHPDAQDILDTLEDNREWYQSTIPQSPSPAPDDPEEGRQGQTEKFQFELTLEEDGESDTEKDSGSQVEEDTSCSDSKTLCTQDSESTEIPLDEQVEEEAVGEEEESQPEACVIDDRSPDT

PDE7B [3] = target: T4, PDE7B; experiment: 5FOA growth assay in fission yeast strain expressing PDE7B; assay type: cell-based; parameters: targets used in the assays are full-length proteins (as opposed to simply the catalytic domain); expressed in transfected cells; host or cells: Schizosaccharomyces pombe
Method: (§1) PDE inhibition allows growth in 5FOA medium as measured by optical density after 48 hours incubation at 30° C. Compound BC12 and six structural analogs were tested for growth stimulation.
(§2) Cells were pregrown in EMM medium [MP Biomedicals (Solon, Ohio), 3% glucose, filter-sterilized to avoid carmelization, which would introduce variability into the optical density of the medium] containing from 0 mM to 2.5 mM cAMP (or either 0.5 mM or 1.0 mM cGMP). This was to repress expression of the fbp1-ura4 reporter prior to exposure of cells to 5FOA medium. Cells were grown at 30° C. to exponential phase (approximately 10^7 cells/ml). Cells were collected by centrifugation and resuspended in 5FOA medium, and 25 μl were transferred to 384-well microtiter dishes (untreated, with flat clear bottoms) that had been pre-filled with 25 μl 5FOA medium and pre-pinned with 100 nl of compounds (stock solutions were generally 10 mM). Starting cell concentrations ranged from 0.5×10^5 to 4×10^5 cells/ml depending on the screening strain. […] Other positive control dishes contained 5 mM cAMP in the 5FOA medium for PDEs that lack appropriate control compounds. Cultures were grown for 48 hours at 30° C., sealed in an airtight container with moist paper towels to prevent evaporation. Optical densities (OD600) of cultures were measured using a microplate reader. Bioinformatic analysis of the results to determine composite Z scores was performed as previously described (1, 3).
Target sequence in this assay (Q9NP56 whole entry, species assumed, the tested form may be a part): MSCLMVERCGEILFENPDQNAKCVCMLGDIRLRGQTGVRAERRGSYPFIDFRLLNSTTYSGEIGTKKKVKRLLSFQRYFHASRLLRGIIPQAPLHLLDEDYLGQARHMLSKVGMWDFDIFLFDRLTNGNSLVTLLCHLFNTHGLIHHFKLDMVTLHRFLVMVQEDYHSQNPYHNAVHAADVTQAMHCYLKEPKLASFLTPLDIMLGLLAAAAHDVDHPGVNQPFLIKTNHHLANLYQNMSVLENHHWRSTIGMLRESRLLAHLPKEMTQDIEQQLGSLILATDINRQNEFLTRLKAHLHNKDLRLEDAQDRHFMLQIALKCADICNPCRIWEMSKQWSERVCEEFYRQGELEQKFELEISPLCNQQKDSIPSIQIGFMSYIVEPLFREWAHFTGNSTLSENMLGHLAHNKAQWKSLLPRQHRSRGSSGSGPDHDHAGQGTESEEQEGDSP

PDE7A [4] = target: T3, PDE7A; experiment: 5FOA growth assay in fission yeast strain expressing PDE7A; assay type: cell-based; parameters: targets used in the assays are full-length proteins (as opposed to simply the catalytic domain); expressed in transfected cells; host or cells: Schizosaccharomyces pombe, PDE gene integrated in place of cgs2
Method: as §1, §2

[5] = tested on: PDE4A, PDE4B, PDE4D, PDE7A, PDE7B, PDE8A, PDE3A; experiment: Summary of PDE inhibitor profile; parameters: key: (1): Strong PDE7A inhibitor, weak to moderate PDE4A, 4B inhibitor; (2): Strong PDE7A and PDE4s (including PDE4D) inhibitor; (3): Strong PDE7A inhibitor; conditions: overall classification, Table 18 footnotes
CLL = CLL assay; assay type: cell-based
Lymphoma cells = experiment: in vitro assay on lymphoma cells (24 hours, Hoechst stain, fsc/ssc); assay type: cell-based
Method: FIGS. 6A and 6B show the in vitro assay of BC54 action. Lymphoma cells are treated with the drug for 24 hours, then stained with Hoechst dye. The cells form a clearly defined population on the fsc/ssc dot plot. Vincristine treatment was used as a positive control. […] BC54 is referred to in the figure as S54.

PDE4D2-CAT = target: T6, PDE4D2-CAT (Homo sapiens, UniProt Q08499); experiment: in vitro enzyme assay, catalytic fragment of PDE4D2 (residues 86-413); assay type: biochemical
T6 construct: 86-413; made in house; host or cells: E. coli
T6 sequence (Q08499 388-715): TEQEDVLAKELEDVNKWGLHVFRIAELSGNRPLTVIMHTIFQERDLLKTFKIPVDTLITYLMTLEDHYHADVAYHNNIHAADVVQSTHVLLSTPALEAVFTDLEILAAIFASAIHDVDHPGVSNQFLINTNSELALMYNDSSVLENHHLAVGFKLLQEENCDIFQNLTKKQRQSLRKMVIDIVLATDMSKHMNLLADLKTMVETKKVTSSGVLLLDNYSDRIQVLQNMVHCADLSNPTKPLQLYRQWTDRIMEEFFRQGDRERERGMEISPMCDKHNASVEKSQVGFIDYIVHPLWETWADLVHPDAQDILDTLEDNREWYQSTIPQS

PDE7B [6] = target: T7, PDE7B (Rattus norvegicus, UniProt A0A0G2JXU0); experiment: in vitro enzyme assay of PDE7B activity in extracts from rat pulmonary endothelial cells; assay type: biochemical
T7 construct: endogenous in cells; host or cells: rat pulmonary endothelial cells (extract)
T7 sequence (A0A0G2JXU0 1-446): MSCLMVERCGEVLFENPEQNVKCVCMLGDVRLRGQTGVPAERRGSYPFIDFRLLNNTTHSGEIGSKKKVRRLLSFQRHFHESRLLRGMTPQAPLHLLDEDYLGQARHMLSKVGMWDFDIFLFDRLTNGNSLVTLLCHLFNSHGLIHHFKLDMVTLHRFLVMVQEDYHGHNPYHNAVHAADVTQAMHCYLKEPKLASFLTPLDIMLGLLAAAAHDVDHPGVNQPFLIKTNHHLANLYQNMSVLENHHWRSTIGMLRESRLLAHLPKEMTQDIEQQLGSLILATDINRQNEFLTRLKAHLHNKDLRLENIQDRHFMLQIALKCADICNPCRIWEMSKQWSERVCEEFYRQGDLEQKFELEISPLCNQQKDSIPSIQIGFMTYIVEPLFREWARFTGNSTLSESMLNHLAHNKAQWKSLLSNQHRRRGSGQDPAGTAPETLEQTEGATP
From the text: FIG. 13 is the in vitro enzyme assays of PDE7B activity in extracts made from rat pulmonary endothelial cells.

U937 cells = experiment: TNF alpha release by LPS-treated U937 cells; assay type: cell-based
[7] = tested on: PDE4A, PDE4B, PDE4D, PDE7A, PDE7B, PDE8A, PDE3A; experiment: Summary of PDE inhibitor profile
[8] = optical density after 48 hours at 30° C.

Cc1cc(C)nc(SCCS(=O)(=O)c2ccc(C(C)(C)C)cc2)n1 [Compound 26]
cAMP Response (% rolipram), 4A1 (PDE4A1): 96.00 % rolipram

OCCN(CCO)c1nc(N2CCCCC2)c2nc(N(CCO)CCO)nc(N3CCCCC3)c2n1 [dipyridamole, Dipyridamole]
inhibition of PDE8A in yeast, in words (PDE8A): not able to be inhibited

Cc1ccc([N+](=O)[O-])cc1S(=O)(=O)N(C)C [BRL50481, reference compound]
pIC50 (PDE7A [1]): 6.70
pIC50 (PDE7B [2]; AC200 = [Compound] that doubles PDE activity, read-out: IC50 (or AC200), PDE7B): 4.74
pIC50 (PDE4D2-FL): < 4.70
pEC50 (PDE7B [3]; OD600 0.6, read-out: ED50 for 5FOA growth assays, PDE7B): 4.38
pEC50 (PDE7A [4]; OD600 0.6, read-out: ED50 for 5FOA growth assays, PDE7A): 5.89

COc1ccc2c(c1)C1(C)CCC(=O)CC1CC2 (single isomer, unassigned) [Compound 39]
PDE inhibitor profile (Table 18) [5]: 39 (1)

CN(C)c1ccc(/C=C/C=C2/C(=O)NC(=O)N(c3ccccc3)C2=O)cc1 [BC12]
PDE7B, 2 uM cpm (PDE7B [2]; 2 uM compound): 2388 cpm
effect on cAMP hydrolysis by PDE7B in vitro, in words (PDE7B [2]; E. coli-expressed catalytic domain): increases cAMP hydrolysis
activity in CLL assay, in words (CLL): shows activity
5FOA growth response, PDE7B strain, in words (PDE7B [3]; [8]): most potent inhibitor, promoting growth at low micromolar concentrations
apoptosis of lymphoma cells, in words (Lymphoma cells): apoptosis effect
PDE4D catalytic domain, 2 uM cpm (PDE4D2-CAT; 2 uM compound): 3686 cpm
activity at 2 µM (PDE4D2-CAT; 2 micromolar compound, DMSO = 100, read-out: In vitro activation of PDE4D catalytic domain, % activity): 133%
inhibition of PDE7B from pulmonary endothelial cells, in words (PDE7B [6]): potent inhibitor
pKi (PDE7B [6]; KI on PDE7 (PDE7B) from rat pulmonary endothelial cells, cell extracts): ~6.70
KI lower than that of BRL50481 (PDE7B [6]; PDE7B, rat pulmonary endothelial cell extracts): approximately 100 fold
TNF alpha reduction, conclusion in words (U937 cells): shows activity
5FOA growth response, PDE7A strain, in words (PDE7A [4]; [8]): most potent inhibitor, promoting growth at low micromolar concentrations
PDE inhibitor profile, in words [7]: PDE7 inhibitor that appears to activate PDE4D and PDE7B in vitro (not in vivo)
